# Data as given in ChEMBL document CHEMBL6134870 (J Med Chem, 2025).
# Tests used:
# [1] = human, serum, 2 h
# [2] = Cytotoxicity against BoNT/A treated human iPSC cells assessed as cell rounding at 100 uM incubated for 7.5 hrs by Western blot analysis; assay type: toxicity, cell-based
# [3] = molecular target: T1, Matrix metalloproteinase-19 (Homo sapiens, UniProt Q99542); test: Inhibition of MMP-19 (unknown origin) at 25 uM; assay type: toxicity
# T1 sequence (Q99542 whole entry): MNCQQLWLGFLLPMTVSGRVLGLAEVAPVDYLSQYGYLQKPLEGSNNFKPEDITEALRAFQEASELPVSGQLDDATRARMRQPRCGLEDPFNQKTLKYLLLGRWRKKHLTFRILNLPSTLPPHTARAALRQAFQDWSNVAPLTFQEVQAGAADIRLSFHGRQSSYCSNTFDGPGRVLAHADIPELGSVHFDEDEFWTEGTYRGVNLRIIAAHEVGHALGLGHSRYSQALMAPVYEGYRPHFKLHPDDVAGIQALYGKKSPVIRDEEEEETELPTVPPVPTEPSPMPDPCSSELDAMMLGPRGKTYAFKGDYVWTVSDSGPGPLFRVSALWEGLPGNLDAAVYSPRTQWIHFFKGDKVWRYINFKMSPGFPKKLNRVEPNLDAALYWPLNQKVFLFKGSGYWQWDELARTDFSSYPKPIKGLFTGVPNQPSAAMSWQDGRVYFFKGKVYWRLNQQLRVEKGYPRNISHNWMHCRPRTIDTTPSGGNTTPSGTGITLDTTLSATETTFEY
# [4] = molecular target: Matrix metalloproteinase-14 (Homo sapiens, UniProt P50281); test: Inhibition of MMP-14 (unknown origin) at 25 uM; assay type: toxicity
# HEK293 = test: Cytotoxicity against HEK293 cells assessed as reduction in cell viability at 2 to 128 uM incubated for 24 hrs by MTS assay; assay type: toxicity, cell-based; settings: human, hek293, 24 h, dose 2-128 µM
SMILES,t1/2 [1] [h],Activity [2],further results
C=C=CC(=O)NCCCc1ccn2c(=O)cc(CNCc3ccc(-c4ccccc4)cc3)nc2c1O,6.4,–,–
FC(F)(F)c1ccc(-c2ccc3c(c2)CC(=S)N3)c(C2CC2)c1,–,Toxic,–
FC(F)(F)c1ccc(-c2cc3c(cc2Cl)NC(=S)C3)c(C(F)(F)F)c1,–,–,Activity [3]: Active; Activity [4]: Active
FC(F)(F)c1ccc(-c2ccc3c(c2)CC(=S)N3)c(C(F)(F)F)c1,–,Toxic,Activity (HEK293): Non-toxic
Cn1c(SC(=O)C(C)(C)C)cc2cc(C(=O)Nc3ccccc3)ccc21,1.2,–,–
